Activity calls are given as the source filed them. The calls are words filed in the database; no cut-off is given here.
Experiments:
Caco-2 = test: Antiproliferative activity against human Caco-2 cells; assay type: functional, cell-based
MDA-MB-231 [1] = test: Antiproliferative activity against human MDA-MB-231 cells after 48 hrs by WST-1 assay; assay type: functional, cell-based; conditions: MDA-MB-231, 48 h
HCT-116 = test: Antiproliferative activity against human HCT116 cells after 48 hrs by WST-1 assay; assay type: functional, cell-based; conditions: HCT-116, 48 h
MCF7 = test: Antiproliferative activity against human MCF7 cells assessed as cell viability at 10 uM after 48 hrs by WST-1 assay; assay type: functional; conditions: MCF7, 48 h, read-out: Activity
SW-620 = test: Antiinvasive activity against human SW620 cells at 10 uM after 24 hrs; assay type: functional, cell-based
MDA-MB-231 [2] = test: Antiproliferative activity against human MDA-MB-231 cells assessed as cell viability at 10 uM after 48 hrs by WST-1 assay; assay type: functional; conditions: MDA-MB-231, 48 h, read-out: Activity
NCI-H520 = test: Antiproliferative activity against human NCIH520 cells after 48 hrs after 48 hrs by WST-1 assay; assay type: functional, cell-based

IC50 (MDA-MB-231 [1]) [µM] | IC50 (HCT-116) [µM] | Compound | viability at 10 µM (MCF7) [%] | further results
15.3 | 13.7 | COC1=CC(c2ccc[nH]2)=N/C1=C\NCCC(C)C [TAMBJAMINE K] |  | IC50 (Caco-2): 0.0033 µM
3.5 | 3.6 | COC1=CC(c2ccc[nH]2)=N/C1=C/c1ccc(CCCCCCC/C=C/C(C)=O)[nH]1 |  | 
4 | 1.8 | COC1=CC(c2ccc[nH]2)=N/C1=C\NC1CCCc2ccccc21 (configuration not stated) | < 10 | viability at 10 µM (MDA-MB-231 [2]): 40%; Activity (NCI-H520): inactive
0.36 | 0.14 | CO[C@@H]1CC(c2ccc[nH]2)=N[C@]12O[C@@H](C)C[C@@H]1CCCCCCCc3ccc([nH]3)[C@H]12 [MARINEOSIN A] |  | 

Further lines, the compound ahead of its results:

Compound | IC50 (MDA-MB-231 [1]) [µM] | IC50 (HCT-116) [µM] | viability at 10 µM (MCF7) [%] | further results
CCCC(C)N/C=C1\N=C(c2ccc[nH]2)C=C1OC (configuration not stated) |  |  | < 20 | 
COC1=CC(c2ccc[nH]2)=N/C1=C\NC1Cc2ccccc2C1 |  |  | < 20 | Activity (SW-620): inactive
COC1=CC(c2ccc[nH]2)=N/C1=C\NCC1CCCCC1 |  |  | < 20 | 
COC1=CC(c2ccc[nH]2)=N/C1=C\NC1CCc2ccccc21 (configuration not stated) |  |  | < 20 | 

From ChEMBL document CHEMBL1221244, “Total synthesis and biological evaluation of tambjamine K and a library of unnatural analogs” (Bioorg Med Chem Lett, 2010)
